According to patent publication US6737383B1, “Herbicidal oxadiazolidines” (priority 1999, dated 2004):

Legend:
bedstraw = assay: Test B pre/postemergence bedstraw; assay type: in vivo, Galium aparine
Summary of the method: (§1)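 Test chemicals in a non-phytotoxic solvent mixture with surfactant were sprayed preemergence onto planted seeds and postemergence onto plants 2 to 18 cm tall (1- to 4-leaf stage). After twelve to sixteen days in a greenhouse, injury was visually rated against untreated controls from 0 (no effect) to 10 (complete control).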

smallflower flatsedge = assay: Test B flood test smallflower flatsedge; assay type: in vivo, Cyperus difformis; details: for Plant response rating, S. Flatsedge (0 to 10 scale, 0 is no effect, 10 is complete control) / S. Flatsedge plant response rating (0 to 10 scale, 0 is no effect, 10 is complete control): visual evaluation after twelve to sixteen days; for S. Flatsedge plant response rating (0 to 10 scale, 0 is no effect, 10 is complete control): Rate 125 g/ha, under heading Pre-emergence
Summary of the method: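 Flood test on plants grown to the 2-leaf stage; treated plants kept in greenhouse twelve to sixteen days, then visually rated against controls on a 0 (no effect) to 10 (complete control) scale.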

surinam grass = assay: Test B pre/postemergence surinam grass; assay type: in vivo, Brachiaria decumbens
Summary of the method: as §1

blackgrass = assay: Test B pre/postemergence blackgrass; assay type: in vivo, Alopecurus myosuroides
Summary of the method: as §1

[1] = Postemergence, Rate 125 g/ha, scale 0 to 10, 0 is no effect, 10 is complete control
[2] = Postemergence, Rate 250 g/ha, scale 0 to 10
[3] = Preemergence, Rate 62 g/ha, scale of 0 to 10 where 0 is no effect and 10 is complete control
[4] = Rate 62 g/ha, Postemergence, scale 0 to 10, 0 no effect, 10 complete control
[5] = Rate 62 g/ha, flood test species, Pre-emergence
[6] = Rate 250 g/ha, Pre-emergence (flood test species), scale 0 to 10, 0 is no effect, 10 is complete control
[7] = Postemergence, Rate 500 g/ha, scale of 0 to 10 where 0 is no effect and 10 is complete control
[8] = Preemergence, Rate 125 g/ha, scale 0 to 10, 0 is no effect, 10 is complete control
[9] = Preemergence, Rate 250 g/ha, scale 0 to 10, 0 is no effect, 10 is complete control
[10] = Preemergence, Rate 500 g/ha, scale 0 to 10, 0 is no effect, 10 is complete control
[11] = Postemergence, Rate 250 g/ha, scale 0 to 10, 0 is no effect, 10 is complete control
[12] = Preemergence, Rate 62 g/ha, scale 0 to 10 (0 no effect, 10 complete control)
[13] = Preemergence, Rate 125 g/ha, scale of 0 to 10 where 0 is no effect and 10 is complete control
[14] = Preemergence, Rate 250 g/ha, scale of 0 to 10 where 0 is no effect and 10 is complete control
[15] = Preemergence, Rate 500 g/ha, scale of 0 to 10 where 0 is no effect and 10 is complete control
[16] = Rate 62 g/ha, Postemergence, scale of 0 to 10 where 0 is no effect and 10 is complete control
[17] = Postemergence, Rate 62 g/ha, scale 0 to 10, 0 is no effect, 10 is complete control
[18] = Postemergence, Rate 125 g/ha, scale of 0 to 10 where 0 is no effect and 10 is complete control
[19] = Postemergence, Rate 250 g/ha, scale of 0 to 10, 0 is no effect, 10 is complete control
[20] = Preemergence, Rate 250 g/ha, scale 0 to 10 (0 no effect, 10 complete control)

## CC(C)N(C(=O)n1oc(=O)n(Cc2cnc(Cl)s2)c1=O)c1ccc(F)cc1 [Compound 482]
bedstraw; [1]
  Bedstraw plant response rating: 0
bedstraw; [2]
  Bedstraw plant response rating: 0
bedstraw; [3]
  Plant response rating, Bedstraw: 0
bedstraw; [4]
  Bedstraw plant response rating: 0
Smallflower flatsedge; [5]
  Plant response rating, S. Flatsedge (0 to 10 scale, 0 is no effect, 10 is complete control): 0
Smallflower flatsedge; flood test species
  S. Flatsedge plant response rating (0 to 10 scale, 0 is no effect, 10 is complete control): 0
Smallflower flatsedge; [6]
  S. Flatsedge plant response rating: 0
Smallflower flatsedge; Rate 500 g/ha, Pre-emergence, flood test species, scale 0 to 10 (0 no effect, 10 complete control)
  S. Flatsedge plant response rating: 0
Surinam grass; [1]
  B. signalgrass plant response rating: 0
Surinam grass; Postemergence, Rate 250 g/ha, scale 0 to 10, 0 no effect, 10 complete control
  B. signalgrass plant response rating: 0
Surinam grass; [7]
  B. signalgrass plant response rating: 0
Surinam grass; [3]
  Plant response rating, B. signalgrass: 0
Surinam grass; [8]
  B. signalgrass plant response rating: 0
Surinam grass; [9]
  B. signalgrass plant response rating: 0
Surinam grass; [10]
  B. signalgrass plant response rating: 0
Surinam grass; [4]
  B. signalgrass plant response rating: 0
blackgrass; [1]
  Blackgrass plant response rating: 0
blackgrass; [2]
  Blackgrass plant response rating: 0
blackgrass; [7]
  Blackgrass plant response rating: 0
blackgrass; [3]
  Plant response rating, Blackgrass: 0
blackgrass; [8]
  Blackgrass plant response rating: 0
blackgrass; [9]
  Blackgrass plant response rating: 0
blackgrass; [10]
  Blackgrass plant response rating: 4
blackgrass; [4]
  Blackgrass plant response rating: 0

## CC(C)N(C(=O)n1oc(=O)n(CCCC(F)(F)F)c1=O)c1ccc(F)cc1 [Compound 398]
bedstraw; [7]
  Bedstraw plant response rating: 9
Smallflower flatsedge; Postemergence section (flood test species), Rate 500 g/ha, scale of 0 to 10 where 0 is no effect and 10 is complete control
  S. Flatsedge plant response rating: 0
Smallflower flatsedge; Rate 62 g/ha, Postemergence (flood test species), scale of 0 to 10 where 0 is no effect and 10 is complete control
  S. Flatsedge plant response rating: 0
Smallflower flatsedge; flood test species, listed under Postemergence, Rate 250 g/ha, scale 0 to 10, 0 is no effect, 10 is complete control
  Plant response rating, S. Flatsedge: 0
Surinam grass; [1]
  Plant response rating, B. signalgrass: 0
Surinam grass; [11]
  Plant response rating, B. signalgrass: 2
Surinam grass; [7]
  B. signalgrass plant response rating: 8
Surinam grass; [12]
  Plant response rating, B. signalgrass: 0
Surinam grass; [13]
  Plant response rating, B. signalgrass: 2
Surinam grass; [14]
  B. signalgrass plant response rating: 6
Surinam grass; [15]
  B. signalgrass plant response rating: 10
Surinam grass; [16]
  B. signalgrass plant response rating: 0
blackgrass; [1]
  Plant response rating, Blackgrass: 6
blackgrass; [11]
  Plant response rating, Blackgrass: 9
blackgrass; [7]
  Blackgrass plant response rating: 9
blackgrass; [12]
  Plant response rating, Blackgrass: 3
blackgrass; [13]
  Plant response rating, Blackgrass: 8
blackgrass; [14]
  Blackgrass plant response rating: 8
blackgrass; [10]
  Blackgrass plant response rating: 10
blackgrass; [16]
  Blackgrass plant response rating: 0

## CCCCCn1c(=O)on(C(=O)N(c2ccc(F)cc2F)C(C)C)c1=O [Compound 636]
bedstraw; [17]
  Plant response rating, Bedstraw: 7
bedstraw; [18]
  Plant response rating, Bedstraw: 7
bedstraw; [19]
  Bedstraw plant response rating: 9
bedstraw; [13]
  Bedstraw plant response rating: 5
bedstraw; [20]
  Plant response rating, Bedstraw: 9
bedstraw; [15]
  Plant response rating, Bedstraw: 9
Smallflower flatsedge; [5]
  Plant response rating, S. Flatsedge (0 to 10 scale, 0 is no effect, 10 is complete control): 0
Smallflower flatsedge; flood test species
  S. Flatsedge plant response rating (0 to 10 scale, 0 is no effect, 10 is complete control): 0
Smallflower flatsedge; [6]
  S. Flatsedge plant response rating: 0
Smallflower flatsedge; Rate 500 g/ha, Pre-emergence section of Table B, 0 to 10 scale (0 no effect, 10 complete control)
  S. Flatsedge plant response rating: 0
Surinam grass; [17]
  Plant response rating, B. signalgrass: 0
Surinam grass; [18]
  Plant response rating, B. signalgrass: 0
Surinam grass; [19]
  B. signalgrass plant response rating: 0
Surinam grass; [7]
  Plant response rating, B. signalgrass: 3
Surinam grass; [3]
  B. signalgrass plant response rating: 3
Surinam grass; [13]
  B. signalgrass plant response rating: 9
Surinam grass; [20]
  Plant response rating, B. signalgrass: 8
Surinam grass; [15]
  Plant response rating, B. signalgrass: 9
blackgrass; [17]
  Plant response rating, Blackgrass: 0
blackgrass; [18]
  Plant response rating, Blackgrass: 0
blackgrass; [19]
  Blackgrass plant response rating: 3
blackgrass; [7]
  Plant response rating, Blackgrass: 5
blackgrass; [3]
  Blackgrass plant response rating: 2
blackgrass; [13]
  Blackgrass plant response rating: 4
blackgrass; [20]
  Plant response rating, Blackgrass: 4
blackgrass; [15]
  Plant response rating, Blackgrass: 7
